{"source": "patent US12187754B2", "about": "“LpxC inhibitors and uses thereof” (Blacksmith Medicines, Inc., priority 2021, dated 2025)", "key": {"E. coli": {"tested_on": "E. coli", "assay": "MIC against gram-negative bacterial cell lines (E. coli)", "type": "cell-based", "conditions": "Escherichia coli"}, "K. pneumoniae BAA-1705": {"tested_on": "K. pneumoniae BAA-1705", "assay": "Mouse urinary tract infection model, K. pneumoniae BAA-1705", "type": "in vivo", "conditions": "for Bladder Terminal Burden / Kidney Terminal Burden / Urine Terminal Burden: mice, 96 hours", "experimental": "(§1) Compound A and its prodrugs as disclosed herein were tested in an in vivo mouse model for Urinary Tract Infection. Briefly, mice were infected with E. coli UTI 89 to cause a UTI infection and were treated with compounds disclosed herein.\n(§2) Five days prior to infection, C3H/HeNR female mice were preconditioned with drinking water containing 5% glucose. Mice were rendered unconscious using parenteral anaesthesia (ketamine/medetomidine) then 0.05 mL of a bacterial suspension of E. coli UTI 89 (1.2×10^9 CFU/mL (6.2×10^7 CFU/mouse) was administered transurethrally into the bladder to cause an ascending UTI infection.\n[…]; […]; […]; […] for 3 days (six doses total). Ciprofloxacin was given as a control at 10 mg/kg/dose IV every 12 hours. Compound A was formulated in 10% DMSO, 5% Cremophor, 85% SFI; the remaining compounds used a sterile phosphate-buffered saline (PBS) formulation. Each group was comprised of five mice each.\n(§3) Urine, bladder, and kidney were harvested at 24 h (pre-treatment group only) and 96 h post infection and quantitatively cultured.\nThe experiment was repeated using K. pneumoniae BAA-1705 (MDR; MIC90 strain). Table 5 and FIG. 2 summarize the results, showing the average terminal burden of K. pneumoniae BAA-1705 in urine, bladder, and kidney at the conclusion of the study (96 hours)."}, "Thermal solubility": {"assay": "Thermal solubility", "type": "physicochemical", "conditions": "aqueous buffer, thermodynamic from solid; 100 mM potassium phosphate buffer pH 7.4, 24 h, 25° C.", "experimental": "Solubility of the compounds was assessed in 100 mM potassium phosphate buffer at pH 7.4 after 24 hours at room temperature.\nAccurately weighed K2HPO4 (2.79 g) and KH2PO4 (0.54 g) were dissolved in 90 mL of Milli-Q water and mixed well. Volume was made upto 200 mL with Milli-Q water and mixed well. The prepared phosphate buffer was stored at 2-8° C. and used within a month.\nApproximately 30 mg of test compound was added to approximately 1 mL of the potassium phosphate buffer, pH 7.4. If the visual inspection indicated precipitation, no further compound is added. If the visual inspection indicated a clear solution, further increments of compound were added until the solution was no longer clear.\nTest compounds and assay controls (caffeine) were further incubated for 24 h at 25° C. temperature on a thermomixer at a shaking speed of 1200 rpm. After incubation, the samples (200 μL) were transferred to a filtration plate to which a plate was attached at bottom for collecting the filtrate. The plate was centrifuged at 4000 rpm for 2 min and the filtrate was collected in the attached bottom plate. The filtrates were diluted using filtered buffer based on the initial amount of compound added. All samples were analysed by HPLC-UV method against 8 point calibration curve with concentrations ranging from 2.5 μg/mL to 1000 μg/mL."}, "S. aureus": {"tested_on": "S. aureus", "assay": "Inhibition of gram-positive bacterial cell lines", "type": "cell-based"}, "E. coli UTI 89": {"tested_on": "E. coli UTI 89", "assay": "Mouse urinary tract infection model, E. coli UTI 89", "type": "in vivo", "conditions": "for Bladder Terminal Burden / Kidney Terminal Burden / Urine Terminal Burden: mice, 96 h post infection", "experimental": "as §1, §2\nIV or PO treatment was started 24 h post infection with 3, 10, 15 mg/kg/dose IV Compound A; 3, 10, 15.30 mg/kg/dose IV Compound 1; 3, and 10 mg/kg/dose IV Compound 2; and 30 mg/kg/dose oral of either Compound 1 or 2 administered every 12 hours for 3 days (six doses total). Ciprofloxacin was given as a control at 10 mg/kg/dose IV every 12 hours. Compound A was formulated in 10% DMSO, 5% Cremophor, 85% SFI; the remaining compounds used a sterile phosphate-buffered saline (PBS) formulation. Each group was comprised of five mice each.\nas §3"}, "K. pneumoniae": {"tested_on": "K. pneumoniae", "assay": "MIC against gram-negative bacterial cell lines (K. pneumoniae)", "type": "cell-based", "conditions": "Klebsiella pneumoniae"}, "[1]": {"assay": "Solubility under physiological conditions", "type": "physicochemical", "conditions": "for example at pH 7.4"}, "[2]": {"conditions": "3 mg/kg/dose IV every 12 hours for 3 days"}, "[3]": {"conditions": "10 mg/kg/dose IV every 12 hours for 3 days"}, "[4]": {"conditions": "15 mg/kg/dose IV every 12 hours for 3 days"}, "[5]": {"conditions": "E. coli UTI 89, mice, IV administration"}}}
{"smiles": "N#CC1CN(C[C@@H](Cc2nc[nH]c(=O)c2O)c2ccc(C#Cc3ccc(CN4CCOCC4)cc3)cc2)C1", "note": "[Compound A, (S)-1-(3-(5-hydroxy-6-oxo-1,6-dihydropyrimidin-4-yl)-2-(4-((4-(morpholinomethyl)phenyl)ethynyl)phenyl)propyl)azetidine-3-carbonitrile]", "values": [{"measurement": "MIC", "setting": "E. coli", "value": "< 1", "unit": "mg/L"}, {"measurement": "Bladder Terminal Burden", "setting": "K. pneumoniae BAA-1705; 10 mg/kg/dose IV", "value": "9.29 × 10^1 CFU/mL"}, {"measurement": "Kidney Terminal Burden", "setting": "K. pneumoniae BAA-1705; 10 mg/kg/dose IV", "value": "3.47 × 10^2 CFU/mL"}, {"measurement": "Urine Terminal Burden", "setting": "K. pneumoniae BAA-1705; 10 mg/kg/dose IV", "value": "2.72 × 10^0 CFU/mL"}, {"measurement": "Bladder Terminal Burden", "setting": "K. pneumoniae BAA-1705; 30 mg/kg/dose IV", "value": "BLoD"}, {"measurement": "Kidney Terminal Burden", "setting": "K. pneumoniae BAA-1705; 30 mg/kg/dose IV", "value": "7.48 × 10^1 CFU/mL"}, {"measurement": "Urine Terminal Burden", "setting": "K. pneumoniae BAA-1705; 30 mg/kg/dose IV", "value": "7.41 × 10^3 CFU/mL"}, {"measurement": "Bladder Terminal Burden", "setting": "K. pneumoniae BAA-1705; 60 mg/kg/dose IV", "value": "BLoD"}, {"measurement": "Kidney Terminal Burden", "setting": "K. pneumoniae BAA-1705; 60 mg/kg/dose IV", "value": "3.17 × 10^0 CFU/mL"}, {"measurement": "Urine Terminal Burden", "setting": "K. pneumoniae BAA-1705; 60 mg/kg/dose IV", "value": "BLoD"}, {"measurement": "Bladder Terminal Burden", "setting": "K. pneumoniae BAA-1705; 90 mg/kg/dose PO", "value": "BLoD"}, {"measurement": "Kidney Terminal Burden", "setting": "K. pneumoniae BAA-1705; 90 mg/kg/dose PO", "value": "3.01 × 10^1 CFU/mL"}, {"measurement": "Urine Terminal Burden", "setting": "K. pneumoniae BAA-1705; 90 mg/kg/dose PO", "value": "7.06 × 10^0 CFU/mL"}, {"measurement": "bacterial burden in kidney relative to vehicle-treated controls and the ciprofloxacin control", "setting": "K. pneumoniae BAA-1705; K. pneumoniae BAA-1705, mice", "value": "statistically significant reductions in bacterial burden in kidney"}, {"measurement": "bacterial burden in urine relative to vehicle-treated controls and the ciprofloxacin control", "setting": "K. pneumoniae BAA-1705; K. pneumoniae BAA-1705, mice, except for the 30 mg/kg IV Compound A experiment", "value": "statistically significant reductions in bacterial burden in urine"}, {"measurement": "solubility at 24 h", "setting": "Thermal solubility", "value": "< 0.05", "unit": "mg/mL"}, {"measurement": "inhibition of gram-positive bacterial cell lines", "setting": "S. aureus", "value": "does not inhibit"}, {"measurement": "Bladder Terminal Burden", "setting": "E. coli UTI 89; [2]", "value": "2.57 × 10^5 CFU/mL"}, {"measurement": "Kidney Terminal Burden", "setting": "E. coli UTI 89; [2]", "value": "3.72 × 10^3 CFU/mL"}, {"measurement": "Urine Terminal Burden", "setting": "E. coli UTI 89; [2]", "value": "3.03 × 10^5 CFU/mL"}, {"measurement": "Bladder Terminal Burden", "setting": "E. coli UTI 89; [3]", "value": "3.48 × 10^5 CFU/mL"}, {"measurement": "Kidney Terminal Burden", "setting": "E. coli UTI 89; [3]", "value": "4.44 × 10^2 CFU/mL"}, {"measurement": "Urine Terminal Burden", "setting": "E. coli UTI 89; [3]", "value": "6.26 × 10^4 CFU/mL"}, {"measurement": "Bladder Terminal Burden", "setting": "E. coli UTI 89; [4]", "value": "2.62 × 10^5 CFU/mL"}, {"measurement": "Kidney Terminal Burden", "setting": "E. coli UTI 89; [4]", "value": "1.21 × 10^2 CFU/mL"}, {"measurement": "Urine Terminal Burden", "setting": "E. coli UTI 89; [4]", "value": "3.78 × 10^3 CFU/mL"}, {"measurement": "bacterial burden in urine relative to vehicle-treated controls", "setting": "E. coli UTI 89; E. coli UTI 89, mice", "value": "statistically significant reductions in bacterial burden in urine"}, {"measurement": "bacterial burden in bladder relative to vehicle-treated controls", "setting": "E. coli UTI 89; [5]", "value": "reductions in bacterial burden in bladder"}, {"measurement": "bacterial burden in kidney relative to vehicle-treated control", "setting": "E. coli UTI 89; [5]", "value": "statistically significant reductions in bacterial burden in kidney"}, {"measurement": "MIC", "setting": "K. pneumoniae", "value": "< 1", "unit": "mg/L"}, {"measurement": "solubility", "setting": "[1]", "value": "< 1", "unit": "mg/mL"}]}
